Data taken from patent US4518587A, “Dipeptides of L-5-hydroxytryptophan, processes for their preparation and drugs in which they are present” (S.A. Panmedica, priority 1983, dated 1985).
Where two headings read alike, the source gives them in different places. Square brackets hold non-standard residues; d marks the D form. Peptide text beside a SMILES is read from it. * marks the point of attachment. Trp(5-OH) = N[C@@H](Cc1c[nH]c2ccc(O)cc12)C(=O)O; OtBu = CC(C)(C)O*; tBu = CC(C)(C)*

Tested on: brain levels of L-5-hydroxytryptophan (L-5-HTP), serotonin (5-HT) and 5-hydroxyindoleacetic acid (5-HIAA)
Assay: Biochemical analysis of brain levels of L-5-HTP, 5-HT and 5-HIAA one hour after a single dose (technique of CURZON and GREEN)
Format: in vivo, rats
Conditions: for change in vivo at 10 mg/kg / change in vivo at 25 mg/kg / change in vivo at 50 mg/kg: Rattus norvegicus, 1 h; for change in vivo at 10 mg/kg: read-out: %, relative to the controls, of L-5-HTP at dose of 10 mg/kg
Method: Biochemical analysis of the brain levles of L-5-hydroxytryptophan (L-5-HTP), serotonin (5-HT) and its first metabolite, 5-hydroxyindoleacetic acid (5- HIAA), was carried out one hour after the administration of a single dose to adult rats by the technique of CURZON and GREEN. Three doses were studied, i.e. 10, 25 and 50 mg/kg, 10 animals being used per dose. Table I below indicates the percentage increases in 5-HTP, 5-HT and 5-HIAA relative to the levels found in the control animals: […]

[1] = brain level, adult rats, single dose 10 mg/kg, one hour after administration, percentage increase relative to control animals
[2] = brain level, adult rats, single dose 25 mg/kg, one hour after administration, percentage increase relative to control animals
[3] = brain level, adult rats, single dose 50 mg/kg, one hour after administration, percentage increase relative to control animals
[4] = brain level, adult rats, single dose 25 mg/kg, one hour after administration, percentage increase relative to control animals, read-out: %, relative to the controls, of 5-HIAA at dose of 25 mg/kg
[5] = brain level, adult rats, single dose 25 mg/kg, one hour after administration, percentage increase relative to control animals, read-out: %, relative to the controls, of L-5-HTP at dose of 25 mg/kg
[6] = brain level, adult rats, single dose 50 mg/kg, one hour after administration, percentage increase relative to control animals, read-out: %, relative to the controls, of 5-HIAA at dose of 50 mg/kg
[7] = brain level, adult rats, single dose 50 mg/kg, one hour after administration, percentage increase relative to control animals, read-out: %, relative to the controls, of 5-HT at dose of 50 mg/kg
[8] = read-out: %, relative to the controls, of 5-HT at dose of 50 mg/kg
[9] = read-out: %, relative to the controls, of L-5-HTP at dose of 25 mg/kg
[10] = brain level, adult rats, single dose 50 mg/kg, one hour after administration, percentage increase relative to control animals, read-out: %, relative to the controls, of L-5-HTP at dose of 50 mg/kg

Compound: 5-Hydroxy-L-tryptophyl-γ-aminobutyric acid [Example 20]
- %, relative to the controls, of 5-HIAA at dose of 10 mg/kg [1]: 40%
- %, relative to the controls, of 5-HT at dose of 10 mg/kg [1]: 5%
- %, relative to the controls, of L-5-HTP at dose of 10 mg/kg [1]: 60%
- %, relative to the controls, of 5-HIAA at dose of 25 mg/kg [2]: 100%
- %, relative to the controls, of 5-HT at dose of 25 mg/kg [2]: 5%
- %, relative to the controls, of L-5-HTP at dose of 25 mg/kg [2]: 200%
- %, relative to the controls, of 5-HIAA at dose of 50 mg/kg [3]: 150%
- %, relative to the controls, of 5-HT at dose of 50 mg/kg [3]: 15%
- %, relative to the controls, of L-5-HTP at dose of 50 mg/kg [3]: 400%

Compound: CC(C)(C)OC[C@H](NC(=O)[C@@H](N)Cc1c[nH]c2ccc(O)cc12)C(=O)OC(C)(C)C [Example 15, Tert.-butyl ester of L-5-hydroxytryptophyl-O-tert.-butyl-L-serine] (H-[Trp(5-OH)]-Ser(tBu)-OtBu)
- %, relative to the controls, of L-5-HTP at dose of 10 mg/kg [1]: 200%
- %, relative to the controls, of 5-HIAA at dose of 25 mg/kg [2]: 60%
- %, relative to the controls, of L-5-HTP at dose of 25 mg/kg [2]: 400%
- %, relative to the controls, of 5-HIAA at dose of 50 mg/kg [3]: 150%
- %, relative to the controls, of L-5-HTP at dose of 50 mg/kg [3]: 900%

Compound: N[C@@H](Cc1c[nH]c2ccc(O)cc12)C(=O)N1CCC[C@H]1C(=O)O [Example 11, 5-HYDROXY-L-TRYPTOPHYL-L-PROLINE] (H-[Trp(5-OH)]-Pro-OH)
- change in vivo at 10 mg/kg [1]: 200%
- change in vivo at 25 mg/kg [4]: 150%
- change in vivo at 25 mg/kg [5]: 700%
- change in vivo at 50 mg/kg [6]: 300%
- change in vivo at 50 mg/kg [7]: 20%
- %, relative to the controls, of 5-HT at dose of 10 mg/kg [1]: 10%

Compound: N[C@@H](Cc1c[nH]c2ccc(O)cc12)C(=O)N[C@@H](Cc1ccccc1)C(=O)O [Example 12, 5-HYDROXY-L-TRYPTOPHYL-L-PHENYLALANINE] (H-[Trp(5-OH)]-Phe-OH)
- change in vivo at 25 mg/kg (read-out: %, relative to the controls, of 5-HIAA at dose of 25 mg/kg): 140%
- change in vivo at 50 mg/kg (read-out: %, relative to the controls, of 5-HIAA at dose of 50 mg/kg): 180%
- change in vivo at 50 mg/kg [8]: 25%
- change in vivo at 10 mg/kg: 170%
- change in vivo at 25 mg/kg [9]: 500%

Compound: COC(=O)[C@H](Cc1ccc(O)cc1)NC(=O)[C@@H](N)Cc1c[nH]c2ccc(O)cc12.Cl [Example 5, Methyl ester of 5-hydroxy-L-tryptophyl-L-tyrosine hydrochloride] (H-[Trp(5-OH)]-Tyr-OMe)
- %, relative to the controls, of 5-HIAA at dose of 10 mg/kg [1]: 55%
- %, relative to the controls, of 5-HT at dose of 10 mg/kg [1]: 12%
- %, relative to the controls, of L-5-HTP at dose of 10 mg/kg [1]: 200%
- %, relative to the controls, of 5-HIAA at dose of 25 mg/kg [2]: 160%
- %, relative to the controls, of 5-HT at dose of 25 mg/kg [2]: 10%
- %, relative to the controls, of L-5-HTP at dose of 25 mg/kg [2]: 450%
- %, relative to the controls, of 5-HIAA at dose of 50 mg/kg [3]: 170%
- %, relative to the controls, of 5-HT at dose of 50 mg/kg [3]: 40%
- %, relative to the controls, of L-5-HTP at dose of 50 mg/kg [3]: 1200%

Compound: COC(=O)[C@H](Cc1ccc(O)cc1)NC(=O)[C@H](Cc1c[nH]c2ccc(O)cc12)NC(C)=O [Example 6, Methyl ester of N-acetyl-5-hydroxy-L-tryptophyl-L-tyrosine] (Ac-[Trp(5-OH)]-Tyr-OMe)
- %, relative to the controls, of 5-HT at dose of 25 mg/kg [2]: 5%
- %, relative to the controls, of 5-HT at dose of 50 mg/kg [3]: 5%

Compound: N[C@@H](Cc1c[nH]c2ccc(O)cc12)C(=O)N[C@@H](CCC(=O)O)C(=O)O [Example 4, 5-Hydroxy-L-tryptophyl-L-glutamic acid] (H-[Trp(5-OH)]-Glu-OH)
- change in vivo at 10 mg/kg [1]: 200%
- change in vivo at 25 mg/kg [5]: 550%
- change in vivo at 50 mg/kg [7]: 60%
- %, relative to the controls, of 5-HT at dose of 10 mg/kg [1]: 5%
- %, relative to the controls, of 5-HT at dose of 25 mg/kg [2]: 10%

Compound: N[C@@H](Cc1c[nH]c2ccc(O)cc12)C(=O)N[C@@H](CC(=O)O)C(=O)O.O.O.O [Example 2, 5-Hydroxy-L-tryptophyl-L-aspartic acid trihydrate] (H-[Trp(5-OH)]-Asp-OH)
- change in vivo at 50 mg/kg [8]: 10%
- change in vivo at 10 mg/kg: 200%
- change in vivo at 25 mg/kg [9]: 600%
- change in vivo at 50 mg/kg (read-out: %, relative to the controls, of L-5-HTP at dose of 50 mg/kg): 1000%
- %, relative to the controls, of 5-HT at dose of 10 mg/kg [1]: 5%
- %, relative to the controls, of 5-HT at dose of 25 mg/kg [2]: 5%

Compound: N[C@@H](Cc1c[nH]c2ccc(O)cc12)C(=O)NCC(=O)O [Example 19, 5-HYDROXY-L-TRYPTOPHYLGLYCINE] (H-[Trp(5-OH)]-Gly-OH)
- change in vivo at 25 mg/kg [4]: 170%
- change in vivo at 25 mg/kg [5]: 700%
- change in vivo at 50 mg/kg [6]: 350%
- change in vivo at 50 mg/kg [7]: 30%
- %, relative to the controls, of 5-HIAA at dose of 10 mg/kg [1]: 75%
- %, relative to the controls, of 5-HT at dose of 10 mg/kg [1]: 30%
- %, relative to the controls, of 5-HT at dose of 25 mg/kg [2]: 12%

Compound: COC(=O)[C@H](Cc1c[nH]cn1)NC(=O)[C@@H](N)Cc1c[nH]c2ccc(O)cc12 [Example 22, METHYL ESTER OF 5-HYDROXY-L-TRYPTOPHYL-L-HISTIDINE] (H-[Trp(5-OH)]-His-OMe)
- %, relative to the controls, of 5-HIAA at dose of 10 mg/kg [1]: 40%
- %, relative to the controls, of 5-HIAA at dose of 25 mg/kg [2]: 140%
- %, relative to the controls, of 5-HT at dose of 25 mg/kg [2]: 15%
- %, relative to the controls, of L-5-HTP at dose of 25 mg/kg [2]: 200%
- %, relative to the controls, of 5-HIAA at dose of 50 mg/kg [3]: 300%
- %, relative to the controls, of 5-HT at dose of 50 mg/kg [3]: 15%
- %, relative to the controls, of L-5-HTP at dose of 50 mg/kg [3]: 300%

Compound: CCOC(=O)CC[C@H](NC(=O)[C@@H](N)Cc1c[nH]c2ccc(O)cc12)C(=O)OCC.Cl [Example 3, Diethyl 5-hydroxy-L-tryptophyl-L-glutamate hydrochloride] (H-[Trp(5-OH)]-Glu(OEt)-OEt)
- change in vivo at 10 mg/kg [1]: 100%
- change in vivo at 25 mg/kg [4]: 150%
- change in vivo at 25 mg/kg [5]: 400%
- change in vivo at 50 mg/kg [6]: 200%
- change in vivo at 50 mg/kg [7]: 200%
- %, relative to the controls, of 5-HIAA at dose of 10 mg/kg [1]: 50%
- %, relative to the controls, of 5-HT at dose of 10 mg/kg [1]: 10%

Compound: NC(=O)[C@@H](N)Cc1c[nH]c2ccc(O)cc12.O [Example 21, 5-HYDROXY-L-TRYPT[…]]
- %, relative to the controls, of 5-HIAA at dose of 10 mg/kg [1]: 30%

Compound: N=C(N)NCCC[C@H](NC(=O)[C@@H](N)Cc1c[nH]c2ccc(O)cc12)C(=O)O [Example 18, 5-Hydroxy-L-tryptophyl-L-arginine] (H-[Trp(5-OH)]-Arg-OH)
- change in vivo at 10 mg/kg [1]: 100%
- change in vivo at 25 mg/kg [4]: 15%
- change in vivo at 25 mg/kg [5]: 300%
- change in vivo at 50 mg/kg [6]: 15%
- change in vivo at 50 mg/kg [7]: 30%
- change in vivo at 50 mg/kg [10]: 500%
- %, relative to the controls, of 5-HIAA at dose of 10 mg/kg [1]: 10%
- %, relative to the controls, of 5-HT at dose of 10 mg/kg [1]: 12%
- %, relative to the controls, of 5-HT at dose of 25 mg/kg [2]: 30%

Compound: N[C@@H](Cc1c[nH]c2ccc(O)cc12)C(=O)N[C@@H](Cc1c[nH]c2ccccc12)C(=O)O [Example 14, 5-Hydroxy-L-tryptophyl-L-tryptophan] (H-[Trp(5-OH)]-Trp-OH)
- change in vivo at 10 mg/kg [1]: 50%
- change in vivo at 25 mg/kg [5]: 100%
- change in vivo at 50 mg/kg [7]: 10%
- change in vivo at 50 mg/kg [10]: 200%
- %, relative to the controls, of 5-HT at dose of 25 mg/kg [2]: 12%
